melting point: 49 to 51 °C
SMILES: COc1nc(N2CCN(C(=O)c3ccccc3C(F)(F)F)CC2)ccc1C(=O)NCCC1CC1 [Example 7, N-(2-cyclopropylethyl)-2-methoxy-6-(4-(2-trifluoromethylbenzoyl)piperazin-1-yl]nicotinamide]
